The text below walks through data of patent US9221870B2, “Crystal form of an organic compound and process for the preparation thereof” (Richter Gedeon Nyrt., priority 2009, dated 2015).

Converted amounts (≈) assume the structure as drawn.

Holding throughout (assay type): physicochemical
Data set [1] is described as follows: Fast stability test (storage on a plate at 40° C. in air, impurity by HPLC). The settings on record: for Impurity / N-demethyl-derivative of CDB-4124: HPLC; for Impurity, Σ (increase Day 0 to Day 10) / N-demethyl-derivative of CDB-4124, Σ (increase Day 0 to Day 10): Σ over 10 days, in the presence of air. The procedure: Amorphous and crystalline forms were stored on a plate at 40° C. in the presence of air for 10 days. Impurity was measured at different times using an HPLC equipment. […]

Data set [2] can be described thus: Solubility at 25° C. in solvent (MeOH). From the text:
Form I is a monotropic modification of CDB-4124 such as Form II. […] Furthermore, Form I can be transformed into Form II via crystallization from different medium.

The nature of data set [3]: Water adsorption by dynamic vapour sorption (DVS). Particulars: 25° C., 0%-95% relative humidity, adsorption-desorption. The procedure: Water adsorption properties of the crystalline Form II of CDB-4124 were measured by dynamic vapour sorption technique (DVS). […]

With `COCC(=O)[C@@]1(OC(C)=O)CC[C@H]2[C@@H]3CCC4=CC(=O)CCC4=C3[C@@H](c3ccc(N(C)C)cc3)C[C@@]21C` [Amorphous form, 17α-acetoxy-21-methoxy-11β-[4-N,N-dimethylaminophenyl]-19-norpregna-4,9-diene-3,20-dione, reference compound], the Impurity in data set [1] (Day 0, in the presence of air) was determined as 0.87%; in data set [1] (Day 1, in the presence of air), 0.97%; in data set [1] (Day 2, in the presence of air), 1.03%; in data set [1] (Day 6, in the presence of air), 1.63%; in data set [1] (Day 10, in the presence of air) it was 1.97%. In addition, the “N-demethyl-derivative of CDB-4124” value is given as 0.15% in data set [1] (Day 0, in the presence of air); 0.21% in data set [1] (Day 1, in the presence of air); 0.25% in data set [1] (Day 2, in the presence of air); 0.55% in data set [1] (Day 6, in the presence of air); 0.73% in data set [1] (Day 10, in the presence of air). Also, in data set [1], the “Impurity, Σ (increase Day 0 to Day 10)” value turned out to be 1.1%. Also, the “N-demethyl-derivative of CDB-4124, Σ (increase Day 0 to Day 10)” value in data set [1] amounted to 0.58%.

As usually defined, the solubility is the concentration that dissolves in the medium under given conditions. Read a low solubility as little dissolved substance. On to `COCC(=O)[C@@]1(OC(C)=O)CC[C@H]2[C@@H]3CCC4=CC(=O)CCC4=C3[C@@H](c3ccc(N(C)C)cc3)C[C@@]21C` [Form I, 17α-acetoxy-21-methoxy-11β-[4-N,N-dimethylaminophenyl]-19-norpregna-4,9-diene-3,20-dione, reference compound], for which the solubility in data set [2] worked out at 500 mg/mL (≈ 989 mM).

On to `COCC(=O)[C@@]1(OC(C)=O)CC[C@H]2[C@@H]3CCC4=CC(=O)CCC4=C3[C@@H](c3ccc(N(C)C)cc3)C[C@@]21C` [Form II, 17α-acetoxy-21-methoxy-11β-[4-N,N-dimethylaminophenyl]-19-norpregna-4,9-diene-3,20-dione], for which the Impurity in data set [1] (Day 0, in the presence of air) came out at 0.14%; in data set [1] (Day 1, in the presence of air), 0.14%; in data set [1] (Day 2, in the presence of air), 0.14%; in data set [1] (Day 6, in the presence of air) it was 0.15%; in data set [1] (Day 10, in the presence of air), 0.17%. For the same molecule, the “N-demethyl-derivative of CDB-4124” value in data set [1] (Day 0, in the presence of air) is 0.02%; in data set [1] (Day 1, in the presence of air) it was 0.02%; in data set [1] (Day 2, in the presence of air), 0.02%; in data set [1] (Day 6, in the presence of air), 0.02%; in data set [1] (Day 10, in the presence of air), 0.03%. Further, in data set [1], the “Impurity, Σ (increase Day 0 to Day 10)” value is given as 0.03%. In data set [1], the “N-demethyl-derivative of CDB-4124, Σ (increase Day 0 to Day 10)” value was 0.01%. In data set [2], the solubility was found to be 23 mg/mL (≈ 45.5 mM). Further, the “change of mass as the degree of humidity was increased” value in data set [3] is given as “barely changed”.
